biological target: PDHK2 (Homo sapiens (Human), UniProt Q15119); experiment: Biochemical activity testing of PDHK2: PDC inactivation assay; details: human rec PDHK2, 5 μM ATP, read-out: IC50 PDHK2 (enzyme assay)
From the text: Biochemical Activity Testing of PDHK2: PDC Inactivation Assay
The biochemical activity assay for PDHK2 is based on the inactivation of PDC through phosphorylation by PDHK2. The assay is run in two steps: the enzymatic PDHK2 reaction in which isolated PDC is phosphorylated by PDHK2 with ATP as co-substrate and the PDC activity assay in which pyruvate and NAD are converted to acetyl-CoA and NADH. The PDC activity correlates to the increase in NADH and thereby is detectable directly via the increasing fluorescence signal (Exc 340 nm, Em 450 nm). Inhibition of PDHK2 results in a lower phosphorylation status and thereby a less decrease in activity of PDC and a stronger increase in NADH fluorescence signal.
The PDC inactivation assay is performed in Greiner 384-well microtiter plates and is used for high throughput screen. 4 μl of PDHK2 (human, rec, Carna Bioscience, 10 ng/μl-137 nM final concentration) and PDC (isolated from porcine heart, Sigma-Aldrich, 20 mU/ml final concentration) are incubated in the absence or presence of the test compound (10 dilution concentrations) for 30 min at room temperature in kinase buffer (15 mM potassium phosphate buffer, pH 7.0, 60 mM KCl, 1.5 mM DTT, 2.5 mM MgCl2, 0.0125% (w/v) BSA, 0.125% Pluronic F-68). The kinase reaction is started by the addition of 4 μl ATP substrate solution (fc 5 μM in kinase buffer). After 30 min incubation at 37° C. 40 μl of PDC reaction solution (100 mM Tris/HCl, pH 7.8, 0.5 mM EDTA, 1 mM MgCl2, 50 mM NaF, 0.25 mM Coenzyme A, 5 mM pyruvate, 1 mM NAD, 5 mM DTT, 1 mM thiamine pyrophosphate) is added. The first fluorescence measurement is performed on a Perkin Elmer Envision (Exc 340 nm, Em 450 nm). The reaction is incubated for 45 min at room temperature. Afterwards a second fluorescence measurement is performed and the PDC activity is calculated by the difference between both measurements. As full value for the PDHK2 assay the inhibitor-free PDHK2 reaction is used. The pharmacological zero value used is DCA (Sigma-Aldrich) in a final concentration of 3 mM. The inhibitory values (IC50) were determined using either the program Symyx Assay Explorer® or Condosseo® from GeneData.

Point of comparison: `Cc1ccc(N(C)C(=O)[C@@H]2CCN(C(=O)[C@@](C)(O)C(F)(F)F)C[C@@H]2C)cc1` [Compound A8, (3R,4R)—N,3-Dimethyl-N-(4-methylphenyl)-1-[(2R)-3,3,3-trifluoro-2-hydroxy-2-methylpropanoyl]piperidine-4-carboxamide], IC50 5.1 µM. Against it:
- Cc1ccc(N(C)C(=O)C2CCN(C(=O)[C@@](C)(O)C(F)(F)F)CC2C)cc1 (stereo partly drawn) [Compound A6, N,3-Dimethyl-N-(4-methylphenyl)-1-[(2R)-3,3,3-trifluoro-2-hydroxy-2-methylpropanoyl]piperidine-4-carboxamide] — 21-fold lower, 0.24 µM
- C[C@H]1CN(C(=O)[C@@](C)(O)C(F)(F)F)CC[C@H]1N(C)C(=O)c1cnn(C)c1 [Compound A57, N,1-Dimethyl-N-[(3S,4R)-3-methyl-1-[(2R)-3,3,3-trifluoro-2-hydroxy-2-methylpropanoyl]piperidin-4-yl]-1H-pyrazole-4-carboxamide] — 3.7-fold higher, 19 µM
- C[C@H]1CN(C(=O)[C@@](C)(O)C(F)(F)F)CC[C@H]1N(C)C(=O)c1ccc(Cl)cc1F [Compound A60, 4-Chloro-2-fluoro-N-methyl-N-[(3S,4R)-3-methyl-1-[(2R)-3,3,3-trifluoro-2-hydroxy-2-methylpropanoyl]piperidin-4-yl]benzamide] — within 1.5-fold, 3.9 µM
- C[C@H]1CN(C(=O)[C@@](C)(O)C(F)(F)F)CC[C@H]1N(C)C(=O)c1ccc(F)cn1 [Compound A54, 5-Fluoro-N-methyl-N-[(3S,4R)-3-methyl-1-[(2R)-3,3,3-trifluoro-2-hydroxy-2-methylpropanoyl]piperidin-4-yl]pyridine-2-carboxamide] — 2.5-fold higher, 13 µM
- C[C@H]1CN(C(=O)[C@@](C)(O)C(F)(F)F)CC[C@H]1N(C)C(=O)c1ccc(F)cc1Cl [Compound A51, 2-Chloro-4-fluoro-N-methyl-N-[(3S,4R)-3-methyl-1-[(2R)-3,3,3-trifluoro-2-hydroxy-2-methylpropanoyl]piperidin-4-yl]benzamide] — within 1.5-fold, 3.6 µM
- C[C@H]1CN(C(=O)[C@@](C)(O)C(F)(F)F)CC[C@H]1C(=O)N(C)c1ccc(Cl)cc1 [Compound A11, (3R,4R)—N-(4-chlorophenyl)-N,3-dimethyl-1-[(2R)-3,3,3-trifluoro-2-hydroxy-2-methylpropanoyl]piperidine-4-carboxamide] — within 1.5-fold, 3.8 µM
- C[C@H]1CN(C(=O)[C@@](C)(O)C(F)(F)F)CC[C@H]1N(C)C(=O)c1ccccc1 [Compound A33, N-Methyl-N-[(3S,4R)-3-methyl-1-[(2R)-3,3,3-trifluoro-2-hydroxy-2-methylpropanoyl]piperidin-4-yl]benzamide] — 1.5-fold lower, 3.4 µM
- C[C@H]1CN(C(=O)[C@@](C)(O)C(F)(F)F)CC[C@H]1N(C)C(=O)c1ccc(F)cc1F [Compound A39, 2,4-Difluoro-N-methyl-N-[(3S,4R)-3-methyl-1-[(2R)-3,3,3-trifluoro-2-hydroxy-2-methylpropanoyl]piperidin-4-yl]benzamide] — within 1.5-fold, 4.9 µM
- C[C@H]1CN(C(=O)[C@@](C)(O)C(F)(F)F)CC[C@H]1N(C)C(=O)c1ccc(Cl)cc1 [Compound A22, 4-Chloro-N-methyl-N-[(3S,4R)-3-methyl-1-[(2R)-3,3,3-trifluoro-2-hydroxy-2-methylpropanoyl]piperidin-4-yl]benzamide] — within 1.5-fold, 5.9 µM
- C[C@H]1CN(C(=O)[C@@](C)(O)C(F)(F)F)CC[C@H]1N(C)C(=O)c1ccc(C(F)(F)F)cc1F [Compound A48, 2-Fluoro-N-methyl-N-[(3S,4R)-3-methyl-1-[(2R)-3,3,3-trifluoro-2-hydroxy-2-methylpropanoyl]piperidin-4-yl]-4-(trifluoromethyl)benzamide] — 2.1-fold lower, 2.4 µM
- C[C@H]1CN(C(=O)[C@@](C)(O)C(F)(F)F)CC[C@H]1N(C)C(=O)c1ccc(C(F)(F)F)cc1 [Compound A63, N-Methyl-N-[(3S,4R)-3-methyl-1-[(2R)-3,3,3-trifluoro-2-hydroxy-2-methylpropanoyl]piperidin-4-yl]-4-(trifluoromethyl)benzamide] — 1.8-fold lower, 2.9 µM
- CN(C(=O)C1CCN(C(=O)[C@@](C)(O)C(F)(F)F)CC1)c1ccc(C#N)cc1 [Compound A4, 1-((R)-3,3,3-Trifluoro-2-hydroxy-2-methyl-propionyl)-piperidine-4-carboxylic acid (4-cyano-phenyl)-methyl-amide] — 3.4-fold lower, 1.5 µM
- Cc1ccc(N(C)C(=O)[C@@H]2CCN(C(=O)[C@@](C)(O)C(F)(F)F)C[C@@H]2C)c(F)c1 [Compound A14, (3R,4R)—N-(2-fluoro-4-methylphenyl)-N,3-dimethyl-1-[(2R)-3,3,3-trifluoro-2-hydroxy-2-methylpropanoyl]piperidine-4-carboxamide] — 6.6-fold lower, 0.77 µM
- Cc1ccc(C(=O)N(C)[C@@H]2CCN(C(=O)[C@@](C)(O)C(F)(F)F)C[C@@H]2C)cc1 [Compound A25, N,4-Dimethyl-N-[(3S,4R)-3-methyl-1-[(2R)-3,3,3-trifluoro-2-hydroxy-2-methylpropanoyl]piperidin-4-yl]benzamide] — 1.9-fold lower, 2.7 µM
- C[C@H]1CN(C(=O)[C@@](C)(O)C(F)(F)F)CC[C@H]1N(C)C(=O)c1ccc(C#N)cc1 [Compound A45, 4-Cyano-N-methyl-N-[(3S,4R)-3-methyl-1-[(2R)-3,3,3-trifluoro-2-hydroxy-2-methylpropanoyl]piperidin-4-yl]benzamide] — 5.3-fold higher, 27 µM
- CC1CN(C(=O)[C@@](C)(O)C(F)(F)F)CCC1C(=O)N(C)c1ccc(C(F)(F)F)cc1Cl (stereo partly drawn) [Compound A15, N-[2-chloro-4-(trifluoromethyl)phenyl]-N,3-dimethyl-1-[(2R)-3,3,3-trifluoro-2-hydroxy-2-methylpropanoyl]piperidine-4-carboxamide] — 3-fold lower, 1.7 µM
- C[C@H]1CN(C(=O)[C@@](C)(O)C(F)(F)F)CC[C@H]1N(C)C(=O)c1ncc(F)cc1F [Compound A42, 3,5-Difluoro-N-methyl-N-[(3S,4R)-3-methyl-1-[(2R)-3,3,3-trifluoro-2-hydroxy-2-methylpropanoyl]piperidin-4-yl]pyridine-2-carboxamide] — 2.1-fold lower, 2.4 µM
- C[C@H]1CN(C(=O)[C@@](C)(O)C(F)(F)F)CC[C@H]1N(C)C(=O)c1ccc(F)cc1 [Compound A30, 4-Fluoro-N-methyl-N-[(3S,4R)-3-methyl-1-[(2R)-3,3,3-trifluoro-2-hydroxy-2-methylpropanoyl]piperidin-4-yl]benzamide] — 1.5-fold higher, 7.9 µM
- COc1ccc(C(=O)N(C)[C@@H]2CCN(C(=O)[C@@](C)(O)C(F)(F)F)C[C@@H]2C)cc1 [Compound A36, 4-Methoxy-N-methyl-N-[(3S,4R)-3-methyl-1-[(2R)-3,3,3-trifluoro-2-hydroxy-2-methylpropanoyl]piperidin-4-yl]benzamide] — 3.9-fold lower, 1.3 µM

biological target: human PDHK2 (12-407) (Homo sapiens (Human), UniProt Q15119); experiment: Isothermal titration calorimetry (ITC); details: 30° C., pH 7.5; read-out: Binding (ITC) KD
Experimental: Isothermal Titration Calorimetry
ITC measurements were performed with a VP-ITC micro calorimeter (Microcal, LLC/GE Healthcare Bio-Sciences AB, Uppsala, Sweden). In general titrations were performed by titrating the protein (50 μM) to the test compound (5 μM) in 12 μl injections. All binding experiments were carried out at 30° C. In general the test compounds were diluted form DMSO stock solutions into the measurement buffer with a maximum final concentration of 1% DMSO. The measurement buffer was 20 mM HEPES, 135 mM KCl, 1 mM TCEP, 2 mM MgCl2, 15 mM NaH2PO4, pH 7.5. The human PDHK2 (12-407) was produced in E. coli as his-tagged protein and purified by affinity chromatography. The tag was removed by side specific proteolysis. Before titration the protein buffer was changed to the measurement buffer containing the same DMSO concentration as the test compound dilution. ITC data analysis was performed using Origin 7 calorimetry software from the same supplier. For most measurements a binding model of one binding site was assumed. According to the applied mathematical model it is possible to calculate the binding constant (KA), the observed binding enthalpy (ΔH^obs) as well as the stoichiometry (N) of the formed complex. Preceding analysis the raw data was corrected for the heats of dilution by extrapolating from the saturation value from the end of titration. In order to allow for direct comparison between the respective experimental series and protein preparations the protein concentration was corrected by referencing titrations to a well behaved standard inhibitor. The apparent stoichiometry values defined the fraction of binding competent protein and compensated for relative errors in protein concentration measurements. This corrected protein concentration was used to set up ITC experiment series with test compounds. Any deviations from ideal 1:1 stoichiometry observed here were attributed to errors in compound concentration. This nominal compound concentration was corrected as well to achieve 1:1 stoichiometry in the fit.

Point of comparison: `Cc1ccc(N(C)C(=O)[C@@H]2CCN(C(=O)[C@@](C)(O)C(F)(F)F)C[C@@H]2C)c(F)c1` [Compound A14, (3R,4R)—N-(2-fluoro-4-methylphenyl)-N,3-dimethyl-1-[(2R)-3,3,3-trifluoro-2-hydroxy-2-methylpropanoyl]piperidine-4-carboxamide], Kd 5000 nM. Against it:
- CN(C(=O)C1CCN(C(=O)[C@@](C)(O)C(F)(F)F)CC1)c1ccc(C#N)cc1 [Compound A4, 1-((R)-3,3,3-Trifluoro-2-hydroxy-2-methyl-propionyl)-piperidine-4-carboxylic acid (4-cyano-phenyl)-methyl-amide] — 24-fold lower, 210 nM

tested on: PDH-E1alpha (pSer300) in HEK293T cells; experiment: Cellular immunofluorescence assay (Anti-PDH-E1alpha (pSer300)) in HEK293T cells; type: cell-based; details: Homo sapiens, HEK-293T, 5 hours incubation, read-out: IC50 (cell data)
Experimental: Cellular Assay for Determination of Compound Activities
Compound activities were determined in a cellular immunofluorescence assay.
Human HEK293T cells were seeded into black 384-well plates with clear bottom and grown overnight.
Next day, test compounds were added to the wells and the plates incubated for 5 hours. Following this, cells were fixed with formaldehyde, permeabilised and blocked. The primary antibody, Anti-PDH-E1alpha (pSer300), AP1064 (Merck Millipore) was added and incubated overnight in the plate wells. Next, cells were washed and the secondary antibody, Alexa Fluor 488, goat anti-rabbit ab (A-11008, Invitrogen) was added together with Hoechst 33258 (H3569, Invitrogen) and incubated for 1 hour in the plate wells. Finally, cells were washed and the plates were measured on the laser scanning cytometer acumen hci (TTpLabtech).
The raw data were normalized against a pharmacological inhibitor control and dose response curves were generated by plotting the percent effect values using the software package Genedata screener (Genedata).

With `Cc1ccc(N(C)C(=O)C2CCN(C(=O)[C@@](C)(O)C(F)(F)F)CC2C)cc1` (stereo partly drawn) [Compound A6, N,3-Dimethyl-N-(4-methylphenyl)-1-[(2R)-3,3,3-trifluoro-2-hydroxy-2-methylpropanoyl]piperidine-4-carboxamide] the IC50 was 200 nM.

— patent publication US10428024B2, “Piperidinyl derivatives” (MERCK PATENT GMBH, priority 2016, dated 2019)
